Results as given in publication PMC10799935, “Discovery of a peripheral 5HT2A antagonist as a clinical candidate for metabolic dysfunction-associated steatohepatitis” (Nature Communications, 2024).
Where “and” joins values, the source holds several entries; their conditions need not be identical. Equal values may be shown once.

What was measured:
in vitro [1] = details: mouse, plasma
[2] = tested on: lipogenesis-related genes; assay: DIO mice: qRT-PCR of lipogenesis-related genes in liver; assay type: in vivo, mouse; details: for Fasn gene expression, Predicted (LS) mean diff. / Htr2a gene expression, Predicted (LS) mean diff. / Pparγ gene expression, Predicted (LS) mean diff. / Srebp1c gene expression, Predicted (LS) mean diff.: Tukey's multiple comparisons test; for Fasn gene expression, Predicted (LS) mean / Htr2a gene expression, Predicted (LS) mean / Pparγ gene expression, Predicted (LS) mean / Srebp1c gene expression, Predicted (LS) mean: vehicle = 1
Method: Total RNA extractions from harvested tissues were performed using TRIzol according to the manufacturer’s protocol. After TURBO DNase (Invitrogen) treatment, 2 μg of total RNA was used to generate complementary DNA with a High-Capacity cDNA Reverse Transcription Kit (Thermo Fisher Scientific). Quantitative RT-PCR was performed with Fast SYBR Green Master Mix (Thermo Fisher Scientific) and a Viia 7 Real-time PCR System (Thermo Fisher Scientific) according to the manufacturer’s instructions. Gene expression was relatively quantified based on the delta-delta Ct (threshold cycle) method with the beta-actin gene as a reference gene. The sequence of primers can be found in the Supporting Information (Supplementary Table 2).

CYP2C9 = CYP2C9 (Homo sapiens, UniProt P11712); assay: in vitro
Sequence of CYP2C9 (P11712 whole entry): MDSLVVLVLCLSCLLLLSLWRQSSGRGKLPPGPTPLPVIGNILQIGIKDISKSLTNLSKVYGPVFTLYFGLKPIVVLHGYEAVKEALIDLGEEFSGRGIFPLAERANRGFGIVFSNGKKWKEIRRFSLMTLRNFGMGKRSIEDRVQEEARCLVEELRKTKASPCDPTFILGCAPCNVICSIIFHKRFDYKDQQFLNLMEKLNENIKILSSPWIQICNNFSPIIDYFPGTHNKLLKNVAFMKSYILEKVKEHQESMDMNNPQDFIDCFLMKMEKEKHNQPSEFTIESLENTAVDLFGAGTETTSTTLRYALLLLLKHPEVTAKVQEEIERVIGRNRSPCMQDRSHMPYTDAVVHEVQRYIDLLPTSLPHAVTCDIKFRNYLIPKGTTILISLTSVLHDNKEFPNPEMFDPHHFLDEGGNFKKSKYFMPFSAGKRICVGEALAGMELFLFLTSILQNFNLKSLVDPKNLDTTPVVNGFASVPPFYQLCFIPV

in vitro [3] = details: rat, plasma
in vitro [4] = details: human, plasma
[5] = tested on: CDAHFD-fed C57BL/6 J mice; assay: CDAHFD mice: Sirius red staining (fibrotic area);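 on Sirius red staining (fibrotic area), individual mouse: percent of liver section area positive for Sirius red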; assay type: in vivo, mouse; parameters: Sirius red staining (fibrotic area), individual mouse / Sirius red staining (fibrotic area), Average: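 percent of liver section area positive for Sirius red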; details: for Sirius red staining (fibrotic area), Average / Sirius red staining (fibrotic area), individual mouse: CDAHFD mice; for Sirius red staining (fibrotic area), Average: group average n=5, CDAHFD+Vehicle 5.533, Vehicle 0.905; for Sirius red staining (fibrotic area), individual mouse: individual animals No. 1-5 (Fig.4e)
From the text: C57BL/6 J male mice were purchased from the Japan SLC. Inc (Hamamatsu, Japan). Mice (5 weeks old) were fed Teklad Certitied Irradiated Global 18% protein rodent diet purchased from Dooyeol Biotech Co. Ltd (Seoul, South Korea) during the acclimation period. The liver fibrosis/inflammation-induced groups were CDAHFD-fed (A06071302, Research diet). […] All animal experiments complied with the relevant ethical regulations.
Mouse liver tissues were fixed in 4% formalin solution (Sigma–Aldrich, St. Louis, MO, USA) and embedded in paraffin. 4-μm-thick liver sections were deparaffinized in xylene, and rehydrated through descending grades of ethanol. To evaluate liver fibrosis, sections were stained with Sirius red solution and subjected to immunohistochemical staining. Tissue sections, after deparaffinization, underwent a 16-hour incubation in a solution containing 0.1% Direct Red 80 (365548, Sigma-Aldrich) dissolved in Picric acid (P-201, Spectrum Chemical, CA, USA) for Sirius red staining. The sections were briefly immersed in a 0.01 N HCl solution (1129, Ducksan, Republic of Korea) for 2 min. and then rinsed with distilled water for destaining. Subsequently, the sections underwent dehydration through […] grades of ethanol. Immunohistochemical staining was performed using the Polyview Plus HRP-DAB (anti-Rabbit) Kit (ENZ-KIT159-0150, ENZO Life Science, NY, USA) following the manufacturers’ instructions. Deparaffinized sections were boiled in IHC-TekTM Epitope Retrieval solution (IW-1100, IHCWORLD, MD, USA) for 45 min., cooled for 1 h, incubated in a 3% H2O2 solution (69355-0350, JUNSEI, Japan) for 15 min., washed, and then incubated overnight with primary antibodies (α-SMA, ab5694, Abcam, 1:500 dilution; TNF-α, ab6671, Abcam, 1:100 dilution and IL-1β, ab9722, Abcam, 1:100 dilution). Subsequently, the sections were treated with Polyview Plus HRP for 2 h and developed with DAB chromogen/substrate. Stained […] sections were confirmed by light microscopy (Olympus BX53 upright microscope, Tokyo, Japan). The degree of hepatic fibrosis and immunohistochemical staining was quantified by morphometric analysis of stained liver sections using NIH ImageJ software.

α-SMA = assay: CDAHFD mice: liver α-SMA RNA expression (qRT-PCR); assay type: in vivo, mouse; details: for Relative liver α-SMA expressions in mice, measured using quantitative RT-PCR: individual mice and Average
From the text: C57BL/6 J male mice were purchased from the Japan SLC. Inc (Hamamatsu, Japan). Mice (5 weeks old) were fed Teklad Certitied Irradiated Global 18% protein rodent diet purchased from Dooyeol Biotech Co. Ltd (Seoul, South Korea) during the acclimation period. The liver fibrosis/inflammation-induced groups were CDAHFD-fed (A06071302, Research diet). […]. […] All animal experiments complied with the relevant ethical regulations.
The frozen liver tissue was homogenized and put into QiAzol (Qiagen, Hilden) to isolate RNA, and 4 μg of RNA was synthesized into cDNA using the RevertAid First Strand cDNA synthesis kit (Thermo Fischer, Waltham). The expressions of mouse collagen I (Forward: 5’-TGTGTTCCCTACTCAGCCGTG-3’. Reverse: 5’-CATCGGTCATGCTCTCTCCAA-3’), mouse α-SMA (Forward:5’-TCCTGACGCTGAAGTATCCGAT-3’, Reverse: 5’-GGCCACACAAAGCTCGTTATAG-3’) and mouse 36B4 (Forward: 5’-ACCTCCTTCTTCCAGGCTTT-3’, Reverse: 5’-CTCCAGTCTTTATCAGCTGC-3’) as house-keeping gene were measured using ViiA 7 Real-time PCR system (Thermo Fischer scientific).

[6] = CDAHFD-fed 11c vs CDAHFD-fed vehicle group

Structure (SMILES): Cc1nc2n(c(=O)c1CCN1CCC(=C3c4ccc(Cl)cc4CCc4cccnc43)CC1)CCCC2O (stereo not shown) [Compound 11c]
- remaining at 4 h (in vitro [1]): > 99.9%
- Fasn gene expression, Predicted (LS) mean diff. ([2]; 11c 5mpk vs. 11c 10mpk): 0.1848
- Htr2a gene expression, Predicted (LS) mean diff. ([2]; 11c 5mpk vs. 11c 10mpk): 0.09643
- Pparγ gene expression, Predicted (LS) mean diff. ([2]; 11c 5mpk vs. 11c 10mpk): -0.1385
- Srebp1c gene expression, Predicted (LS) mean diff. ([2]; 11c 5mpk vs. 11c 10mpk): 0.2716
- Fasn gene expression, Predicted (LS) mean ([2]; 11c 5mpk): 0.7446
- Htr2a gene expression, Predicted (LS) mean ([2]; 11c 5mpk): 0.5102
- Pparγ gene expression, Predicted (LS) mean ([2]; 11c 5mpk): 0.8935
- Srebp1c gene expression, Predicted (LS) mean ([2]; 11c 5mpk): 0.7676
- Fasn gene expression, Predicted (LS) mean ([2]; 11c 10mpk): 0.5598
- Htr2a gene expression, Predicted (LS) mean ([2]; 11c 10mpk): 0.4138
- Pparγ gene expression, Predicted (LS) mean ([2]; 11c 10mpk): 1.032
- Srebp1c gene expression, Predicted (LS) mean ([2]; 11c 10mpk): 0.496
- expression of Fasn ([2]; DIO mice, 10mpk): decreased
- expression of Srebp1c ([2]; DIO mice, 10mpk): reduced
- expression of lipogenesis-related genes ([2]; DIO mice, liver, vs vehicle): reduced
- Fasn gene expression, Predicted (LS) mean diff. ([2]; Vehicle vs. 11c 5mpk): 0.2554
- Htr2a gene expression, Predicted (LS) mean diff. ([2]; Vehicle vs. 11c 5mpk): 0.4898
- Pparγ gene expression, Predicted (LS) mean diff. ([2]; Vehicle vs. 11c 5mpk): 0.1065
- Srebp1c gene expression, Predicted (LS) mean diff. ([2]; Vehicle vs. 11c 5mpk): 0.2324
- Fasn gene expression, Predicted (LS) mean diff. ([2]; Vehicle vs. 11c 10mpk): 0.4402
- Htr2a gene expression, Predicted (LS) mean diff. ([2]; Vehicle vs. 11c 10mpk): 0.5862
- Pparγ gene expression, Predicted (LS) mean diff. ([2]; Vehicle vs. 11c 10mpk): -0.03198
- Srebp1c gene expression, Predicted (LS) mean diff. ([2]; Vehicle vs. 11c 10mpk): 0.504
- inhibition at 10 µM (CYP2C9): 3.17%
- remaining at 4 h (in vitro [3]): > 99.9%
- remaining at 4 h (in vitro [4]): > 98.6%
- Sirius red staining (fibrotic area), Average ([5]; 11c 5 mpk): 3.015
- Sirius red staining (fibrotic area), individual mouse ([5]; 11c 5 mpk): 3.008 and 1.579 and 3.604 and 3.231 and 3.651
- Sirius red staining (fibrotic area), Average ([5]; 11c 10mpk): 3.818
- Sirius red staining (fibrotic area), individual mouse ([5]; 11c 10mpk): 2.883 and 3.981 and 4.409 and 4.507 and 3.312
- collagen accumulation in liver tissue (Sirius red staining) [5, 6]: significant decrease
- Relative liver α-SMA expressions in mice, measured using quantitative RT-PCR (α-SMA; CDAHFD+11c 5 mpk): 2.564 and 0.488 and 1.651 and 1.165 and 1.498
- Relative liver α-SMA expressions in mice, measured using quantitative RT-PCR (α-SMA; CDAHFD+11c 5 mpk, mean): 1.473
- Relative liver α-SMA expressions in mice, measured using quantitative RT-PCR (α-SMA; CDAHFD+11c 10mpk): 2.015 and 1.845 and 1.808 and 2.373 and 1.519
- Relative liver α-SMA expressions in mice, measured using quantitative RT-PCR (α-SMA; CDAHFD+11c 10mpk, mean): 1.912
- mRNA expression of α-SMA in liver tissue (α-SMA; [6]): significantly decreased
